Data from article PMC9138599, “Clade-Specific Alterations within the HIV-1 Capsid Protein with Implications for Nuclear Translocation” (Biomolecules, 2022).
Like-named read-outs stand apart in the source and are kept apart here.

What was measured:
[1] = target: HIV-1 CA hexamer from clade C (92BR025.8) (Human immunodeficiency virus type 1 group M subtype C, UniProt O12157, E175C/M315A/P144C/W314A); assay: SPR binding to immobilized HIV-1 CA hexamer, clade C
[2] = system: HIV-1 CA hexamer from clade A1 (92UG037.1); format: binding; details: SPR
[3] = system: HIV-1 CA hexamer from clade A2 (CDKTB48); format: binding; details: SPR
[4] = target: HIV-1 CA hexamer from clade B (NL4-3) (Human immunodeficiency virus type 1 group M subtype B, UniProt P12493, A146C/E177C/M317A/W316A); assay: SPR binding to immobilized HIV-1 CA hexamer, clade B
[5] = system: HIV-1 CA hexamer from clade D (94UG114.1); format: binding; details: SPR
[6] = system: monomeric HIV-1 CA protein, clade A1 (92UG037.1); assay: In vitro CA assembly (turbidity) assay, clade A1; format: biochemical; details: 3 M NaCl
Protocol: (§1) In vitro assembly of the monomeric HIV-1 CA proteins was performed using a modification of the standard CA turbidity assembly assay [62, 63, 64, 65, 66]. This assay relies upon the fact that the addition of high salt to HIV-1 CA protein causes self-assembly that can be monitored and quantified as the increase in turbidity over time, as described in Kortagere et al. [61, 67]. Briefly, 75 µL of buffer was prepared, containing a final concentration of 50 mM NaH2PO4 pH 8.0 and various concentrations (1–5 M) of NaCl to assess the optimal concentration of salt needed to initiate assembly after the addition of the purified clade variants. To initiate the assembly reaction, 25 µL of 120 µM purified capsid was added to a final CA concentration of 30 µM (including matching DMSO concentrations). In the presence of compounds, the in vitro reaction contained 50 mM NaH2PO4 pH 8.0, 30 µM CA protein, 50 µM inhibitor, 3% DMSO, and 3 M NaCl. Readings were then taken at 350 nm every 30 s for 20 min to measure the increase in turbidity over time. The OD at 350 nm over the first 2 min was then plotted and fit with a linear regression to calculate the initial velocity (AU/min) of CA assembly.

[7] = system: monomeric HIV-1 CA protein, clade A2 (CDKTB48); assay: In vitro CA assembly (turbidity) assay, clade A2; format: biochemical; details: 3 M NaCl
Protocol: as §1

[8] = target: T1, monomeric HIV-1 CA protein, clade C (92BR025.8) (Human immunodeficiency virus type 1 group M subtype C, UniProt O12157); assay: In vitro CA assembly (turbidity) assay, clade C; format: biochemical; details: clade C CA 30 µM, 50 µM inhibitor, 3 M NaCl, first 120 s, n = 3
T1 construct: hexahistidine (C); made in house; host or cells: E. coli BL21 (DE3) RIL
T1 sequence (O12157 131-361): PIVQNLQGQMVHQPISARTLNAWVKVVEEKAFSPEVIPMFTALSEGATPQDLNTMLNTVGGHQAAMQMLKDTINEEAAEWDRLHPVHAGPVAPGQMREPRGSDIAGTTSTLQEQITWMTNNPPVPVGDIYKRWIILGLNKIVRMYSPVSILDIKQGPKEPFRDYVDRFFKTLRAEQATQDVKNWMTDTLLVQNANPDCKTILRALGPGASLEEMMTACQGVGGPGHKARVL
Protocol: as §1

[9] = system: monomeric HIV-1 CA protein, clade D (94UG114.1); assay: In vitro CA assembly (turbidity) assay, clade D; format: biochemical; details: clade D CA 30 µM, 50 µM inhibitor, 3 M NaCl, first 120 s, n = 3
Protocol: as §1

[10] = target: monomeric HIV-1 CA protein, clade B (NL4-3) (Human immunodeficiency virus type 1 group M subtype B, UniProt P12493)
Protocol: as §1

[11] = target: tri-hexameric interface of CA hexamers; parameters: method as in PMID 34835048; details: RRR patch binding into tri-hexameric interface; cited from earlier work
[12] = global fit, n = 3, read-out: KD Kinetic/Global
[13] = Langmuir isotherm equilibrium fit, 25 °C, n = 3, read-out: KD Equilibrium
[14] = SPR, clade B (NL4.3) hexamer, 1:1 binding model, n = 3

HIV-1 CA hexamer from clade C (92BR025.8), sequence (O12157 131-361 P144C/E175C/W314A/M315A): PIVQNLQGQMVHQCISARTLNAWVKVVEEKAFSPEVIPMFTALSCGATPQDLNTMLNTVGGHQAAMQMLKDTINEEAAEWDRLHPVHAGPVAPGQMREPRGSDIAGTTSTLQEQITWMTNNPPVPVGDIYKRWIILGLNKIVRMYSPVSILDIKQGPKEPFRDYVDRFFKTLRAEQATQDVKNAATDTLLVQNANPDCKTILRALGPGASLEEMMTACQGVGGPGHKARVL

Compound: CC(C)[C@H](NC(=O)CNC(=O)[C@H](CO)NC(=O)[C@@H]1CCCN1C(=O)[C@H](CO)NC(=O)[C@H](CC(N)=O)NC(=O)[C@H](CC(N)=O)NC(=O)[C@@H](N)[C@@H](C)O)C(=O)N[C@@H](Cc1ccccc1)C(=O)N[C@H](C(=O)N[C@@H](Cc1ccccc1)C(=O)NCC(=O)N[C@@H](C)C(=O)N[C@@H](CC(N)=O)C(=O)N[C@@H](CO)C(=O)N[C@@H](CO)C(=O)N[C@H](C(=O)O)[C@@H](C)O)[C@@H](C)O [NUP-153]
- Kd ([1]; Langmuir isotherm equilibrium fit, n = 3, read-out: KD Equilibrium): 503 µM
- Kd [1, 12]: 881 µM

Compound: PF-74
- koff ([2]; 1:1 binding model, n = 3): 0.647 s⁻¹
- kon ([2]; 1:1 binding model, n = 3): 615000 M⁻¹ s⁻¹
- Kd [2, 13]: 0.716 µM
- Kd [2, 12]: 0.947 µM
- koff ([3]; 1:1 binding model, n = 3): 0.0916 s⁻¹
- kon ([3]; 1:1 binding model, n = 3): 669000 M⁻¹ s⁻¹
- Kd [3, 13]: 0.138 µM
- Kd [3, 12]: 0.139 µM
- fold tighter binding to clade B protein compared to clade A1 protein ([4]; SPR data, clade B vs clade A1): ~ 20 fold
- koff [4, 14]: 0.0363 s⁻¹
- kon [4, 14]: 756000 M⁻¹ s⁻¹
- koff ([1]; 1:1 binding model, n = 3): 0.0754 s⁻¹
- kon ([1]; 1:1 binding model, n = 3): 228000 M⁻¹ s⁻¹
- Kd [1, 13]: 0.354 µM
- Kd [1, 12]: 0.33 µM
- koff ([5]; 1:1 binding model, n = 3): 0.0395 s⁻¹
- kon ([5]; 1:1 binding model, n = 3): 773000 M⁻¹ s⁻¹
- Kd [5, 13]: 0.051 µM
- Kd [5, 12]: 0.051 µM
- fold increase in assembly rate (initial velocity) vs Apo ([6]; clade A1, 50 µM inhibitor, initial 120 s): 1.5 fold
- Initial Velocity PF-74 ([6]; clade A1 CA 30 µM, 50 µM inhibitor, first 120 s, n = 3): 0.034 ± 0.001 AU/min
- fold increase in assembly rate (initial velocity) vs Apo ([7]; clade A2, 50 µM inhibitor, initial 120 s): 1.3 fold
- Initial Velocity PF-74 ([7]; clade A2 CA 30 µM, 50 µM inhibitor, first 120 s, n = 3): 0.017 ± 0.002 AU/min
- Initial Velocity PF-74 [8]: 0.039 ± 0.007 AU/min
- Initial Velocity PF-74 [9]: 0.050 ± 0.008 AU/min
- Initial Velocity PF-74 [10]: 0.043 ± 0.009 AU/min

Compound: RRR patch: highly positively charged RRR motif at the C-terminus of NUP-153 binding the tri-hexameric interface of CA (FSGRKIKTAVRRRK; UniProt P49790 1462-1475, looked up, fragment)
- Kd [11]: 0.8 µM
